What was measured:
[1] = tested on: Experimental autoimmune encephalomyelitis; assay: Experimental autoimmune encephalomyelitis (EAE) clinical score; assay type: in vivo; settings: female SJL/J mice, by gavage, alone and/or with Copaxone, observed at days 10, 20 and 30; bar graph
Method: (§1) Experimental autoimmune encephalomyelitis was induced in female SJL/J (6-8 weeks old) by injection PLP139-151 peptide (50 μg) emulsified in complete Freund's adjuvant (BD Diagnostics), containing killed Mycobacterium tuberculosis (400 μg/ml) in a volume of (50 μl per area). Animals were randomized to receive by QuadraMune™ by gavage, and/or Copaxone. Mice where observed for symptoms at days 10, 20 and 30.
Clinical scores (0, no symptoms; 1, limp tail; 2, partial paralysis of hind limbs; 3, complete paralysis of hind limbs or partial hind and front limb paralysis; 4, tetraparalysis; 5, moribund; 6, death).
as §1, with “PLP^139-151” for “PLP139-151”, “pterostilbene” for “by QuadraMune™”
as §1, with “sulforaphane” for “by QuadraMune™”, “Mice where observed for symptoms at days 10, 20 and 30.” left out

Treg = settings: in vivo; cited from earlier work
[2] = tested on: oxygen-induced retinopathy; settings: OIR mice; UDCA 50 mg/kg, P7-P17; cited from earlier work
[3] = tested on: CD4+, CD25+, FoxP3+ Treg cells; settings: responding patients; cited from earlier work
osteoblasts = settings: in vitro, cited from earlier work
osteoporosis = settings: OVX mice, vs PBS treatment group, cited from earlier work
acute pancreatitis = settings: AP mice gavaged with TUDCA; cited from earlier work
IL-6 production = settings: cited from earlier work
[4] = serum, not significantly different

CC1=CC(=O)C(C(C)C)=CC1=O [thymoquinone]
EAE Score [1]: reduction in EAE Score

Interferon beta
Treg activity after initiation of therapy (Treg): renormalization of Treg activity

C[C@H](CCC(=O)NCC(=O)O)[C@H]1CC[C@H]2[C@@H]3[C@@H](O)C[C@@H]4C[C@H](O)CC[C@]4(C)[C@H]3CC[C@]12C [GUDCA]
extension of neovascular and avascular areas [2]: no changes

C[S+]([O-])CCCCN=C=S (stereo not drawn) [sulforaphane]
EAE Score [1]: reduction in EAE Score

glatiramer acetate
CD4+, CD25+, FoxP3+ Treg cells in peripheral blood and cerebral spinal fluid [3]: increased levels

C[C@H](CCC(=O)NCCS(=O)(=O)O)[C@H]1CC[C@H]2[C@@H]3[C@@H](O)C[C@@H]4C[C@H](O)CC[C@]4(C)[C@H]3CC[C@]12C [TUDCA, tauroursodeoxycholic acid]
proliferation and viability of osteoblasts and osteoblast differentiation and mineralization (osteoblasts; 100 nM, 1 μM): significantly increased | detrimental effects of methylprednisolone (methylprednisolone-induced osteoblast apoptosis) (osteoblasts): neutralized | CTX level (osteoporosis; [4]): lower | PINP level (osteoporosis; [4]): higher | percentage bone volume with respect to total bone volume, bone mineral density, distal femur trabeculae (osteoporosis): increased | trabecular structures in the distal femur (micro-CT and histology) (osteoporosis): preserved more trabecular structures | expression of farnesoid-x-receptor (FXR) and its target gene FGF15 (acute pancreatitis): downregulated | pancreatic and intestinal barrier function injury (acute pancreatitis): mitigated | extension of neovascular and avascular areas [2]: no changes | Inflammation and IL-6 production triggered by infection with Brucella abortus (IL-6 production): reduced

— patent publication US20220193170A1, “Nutraceutical Reduction Prevention and/or Reversion of Multiple Sclerosis” (Therapeutic Solutions International, Inc., priority 2020, published 2022)
